The results in this text go back to ChEMBL document CHEMBL1201862, “PubChem BioAssay data set” (2004).

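Five concentrations, 48 hours, 96-well plates. At the GI50, growth is halved.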 The source made the active and inactive calls. No stated cut-off is given here; in the data, active = GI50 up to about 1.1 µM and inactive = higher.

Some test systems named below: PC-3; DU-145; BT-549; T47D; M19-MEL; DMS-114; HOP-18; SNB-78; RXF 631.
Holding throughout (assay): DTP human tumour cell line panel, 48 h

For orientation: GI50 means the concentration giving 50% growth inhibition. Take `N#CC1=C(N)N(c2ccccc2)C(c2ccco2)C1(C#N)C#N` (centres undefined): the GI50 in the assay with PC-3 is 27.4 µM (inactive); in the assay with DU-145, 19.4 µM (inactive); in the assay with BT-549, 18.8 µM (inactive); in the assay on T47D, 15.2 µM (inactive).

On to `COc1cc2c(cc1OC)C(C1(O)CCCCC1)NCC2` (centres undefined), for which, in the assay on M19-MEL, the GI50 was > 100 µM (inactive).

For the compound `CC(C)(C)OC(=O)NCC(=O)NC1c2ccsc2/C(=N/O)[C@H]1O` (some centres undefined), the GI50 with PC-3, in the assay with DU-145, with BT-549 and in the assay on T47D was > 100 µM (inactive) in each case.

Consider `N#CCCOCN(CO)c1nc(N(CO)COCCC#N)nc(N(CO)COCCC#N)n1`, for which the GI50 is 24.3 µM (inactive) in the assay with DMS-114, 23.8 µM (inactive) in the assay with M19-MEL, 24.3 µM (inactive) in the assay with HOP-18 and 79.4 µM (inactive) in the assay on SNB-78.

Consider `Cc1c2c(c(C)n1-c1ccccc1)C(=O)N(CCN1CCN(c3cccc(C(F)(F)F)c3)CC1)C2=O`, for which the GI50 with PC-3 was 18.8 µM (inactive); in the assay on DU-145 it was > 100 µM (inactive); in the assay with BT-549, > 100 µM (inactive); in the assay with T47D, 4.29 µM (inactive).

Regarding `C=C(c1ccccc1)c1cc2c(=O)[nH]ccc2n1C`, the GI50 in the assay with DMS-114 was 19.1 µM (inactive); with M19-MEL, 38.6 µM (inactive); in the assay on SNB-78 it was 48.5 µM (inactive).

Regarding `COCCOCOc1ccc(OCc2ccccc2)cc1`, the GI50 in the assay on DMS-114 is 40.9 µM (inactive); in the assay with M19-MEL it was > 63.4 µM (inactive); with HOP-18 it was > 100 µM (inactive); in the assay on SNB-78, > 100 µM (inactive).

As to `O=C1c2ccccc2OCC12OC21C=CC(Cl)=CC1` (centres undefined), the GI50 was 26.5 µM (inactive) with PC-3, 14.4 µM (inactive) in the assay on DU-145 and 37.9 µM (inactive) in the assay with BT-549.

Turning to `COc1cc(Cc2ccc3c(c2C#N)N(C)c2ccccc2S3)cc(OC)c1OC`, the GI50 in the assay with DMS-114 was 14.6 µM (inactive); in the assay on M19-MEL, 52.4 µM (inactive); with HOP-18, 72.4 µM (inactive); with SNB-78, > 100 µM (inactive).

Take `CSc1nc(N)c2c(-c3ccccc3)c3c(nc2n1)CCCC3`: the GI50 in the assay with PC-3, with DU-145, in the assay with BT-549 and in the assay on T47D was > 100 µM (inactive) in each case.

On to `O=C(NO)c1coc2ccccc2c1=O`, for which the GI50 is 82 µM (inactive) with DMS-114, > 100 µM (inactive) in the assay on SNB-78 and > 100 µM (inactive) with RXF 631.

On to `COc1ccc(-c2nnc(-c3ccncc3)o2)cc1`, for which the GI50 with PC-3, in the assay on DU-145, in the assay with BT-549 and with T47D was > 100 µM (inactive) throughout.

Take `COc1cc2c(cc1Oc1ccc(OC)c3c1CC1c4c(cc(OC)c(OC)c4-3)CCN1C)CC1c3c(cc(OC)c(OC)c3-2)CCN1C` (centres undefined): the GI50 in the assay with M19-MEL is 1.74 µM (inactive); in the assay on HOP-18 it was 14 µM (inactive); with SNB-78, 7.01 µM (inactive).

As for `CC(=C/c1ccccc1)/C=C1/NC(=S)N(/C=C2\C(=O)Oc3ccccc3C2=O)C1=O`, the results for the GI50 in the assay with PC-3, in the assay on DU-145 and with T47D were 96.6 µM (inactive), 45.8 µM (inactive) and 1.76 µM (inactive), respectively.

Consider `CC(=O)ON1C(=O)c2cccc3cccc(c23)C1=O`, for which the GI50 in the assay on PC-3 was 25.8 µM (inactive); with DU-145, 15.1 µM (inactive); in the assay on BT-549, 20.9 µM (inactive); in the assay with T47D, 20.8 µM (inactive).

Regarding `COc1cc([N+](=O)[O-])ccc1NC(=O)c1cccc([N+](=O)[O-])c1O`, the GI50 in the assay on DMS-114 is 22.7 µM (inactive); in the assay on M19-MEL, 24.6 µM (inactive); in the assay on HOP-18 it was 5.32 µM (inactive); in the assay with SNB-78, 27.9 µM (inactive); in the assay on RXF 631, 30.8 µM (inactive).

`COc1ccc(C2ON(c3ccccn3)CC=C2C)cc1` (centres undefined): the GI50 in the assay on DMS-114, with M19-MEL, with HOP-18, with SNB-78 and in the assay with RXF 631 was > 100 µM (inactive) each time.

As for `O=C1c2ccccc2N1C(=O)c1ccccc1[N+](=O)[O-]`, the GI50 in the assay with PC-3, with DU-145 and with T47D was > 100 µM (inactive) in each case.

In the case of `CN(C)c1nc(N(C)C)nc(N(C)CN(C)c2ccccc2)n1`, the GI50 is 63.5 µM (inactive) with DMS-114, > 100 µM (inactive) in the assay on M19-MEL, > 100 µM (inactive) in the assay with HOP-18 and > 100 µM (inactive) with SNB-78.

For `Cc1ccccc1-c1nc2c(C(=O)NCCN(C)C)cccc2[nH]1`, the values for the GI50 with DMS-114, in the assay with HOP-18 and in the assay on SNB-78 were 47.5 µM (inactive), 8.02 µM (inactive) and 51.5 µM (inactive), respectively.

Take `CCN(/N=C1\CC2C=CCN(C2)C(=O)Cc2c1[nH]c1ccccc21)S(=O)(=O)c1ccc(C)cc1` (centres undefined): the GI50 in the assay with DMS-114 is 64.6 µM (inactive); in the assay on M19-MEL, 76.7 µM (inactive); with RXF 631, 96.4 µM (inactive).

In the case of `O=C1OC(c2ccc(O)c(F)c2)(c2ccc(O)c(F)c2)c2cccc3cccc1c23`, the GI50 in the assay with PC-3 was 3.09 µM (inactive); in the assay on DU-145, > 25 µM (inactive).

Turning to `Cc1ccc(NC(=O)c2cccc([N+](=O)[O-])c2O)c(C)c1`, the GI50 in the assay with DMS-114 was 20.1 µM (inactive); with M19-MEL, 24.4 µM (inactive); with HOP-18, 1.02 µM (active); with SNB-78, 26.9 µM (inactive).

`NC(=O)Oc1ccccc1` [CARBAMIC ACID PHENYL ESTER]: the GI50 with PC-3, in the assay on DU-145 and with T47D was > 100 µM (inactive) in each case.
